Test results as given in patent publication US20190117574A1, “SURFACE-MODIFIED MICROSPHERE COMPOSITION, APPLICATION OF THE SAME, AND METHOD OF PREPARING THE SAME” (INSTITUTE OF NUCLEAR ENERGY RESEARCH, ATOMIC ENERGY …, priority 2017, published 2019).

System: mice with FCA-induced arthritis
Test: Treatment of mice with FCA-induced arthritis: ankle joint diameter
Type: in vivo, mice (C57BL/6)
Conditions: 10 mg/kg/ml, subdermal injection around right tibiotarsal joint on day 21 after FCA, FIG. 8
Procedure: Animal Model Created with Arthritis Induced by Freund's Complete Adjuvant (FCA) 24 male mice (C57BL/6, purchased from the National Laboratory Animal Center, Taipei, Taiwan) weighing 20-25 g (8 weeks old) are provided. The mice are each given a subdermal injection of 0.1 ml of FCA at the tibiotarsal joint of the right hind leg and 0.05 ml of FCA on the subplantar side of the right hind paw to induce the development of arthritis. Afterward, thermal images are taken of the mice with a thermal imaging camera on day 0, day 3, and day 14 after injected with FCA, respectively. The diameters of ankle joints of left and right hind legs of the mice are measured with a vernier caliper are surveyed and recorded for 2 or 3 days. The mice with FCA-induced arthritis are administered with a neutrophil elastase 680 FAST probe through trail veins on day 21 and observed with IVIS (non-invasion in vivo imaging system) to confirm whether neutrophil elastase is produced at the location where FCA is injected.
The animal model created with FCA-induced arthritis is described above. 24 mice which conform to the animal model created with FCA-induced arthritis are provided. […]
Upon completion of the subdermal injection of the reagents into the four groups of mice, the diameters of left and right ankle joints and body weight of the mice are measured with a vernier caliper and recorded for 2 or 3 days.

O=C(O)Cc1ccccc1Nc1c(Cl)cccc1Cl [free diclofenac sodium, diclofenac sodium] was tested, and the “reduction of swelling of ankles (ankle joint diameter) compared with saline” value was “more effective than saline in reducing the swelling of the mice's ankles”.
